In patent US20220062199A1, “PH[…] ACTIVATOR COMPOUNDS, COMPOSITIONS, METHODS AND USES THEREOF” (SOCIETE DES PRODUITS NESTLE S.A., priority 2019, published 2022):

Assays:
AMPKα2β1γ1 = molecular target: T1, AMPKα2β1γ1 (Homo sapiens, UniProt P54619+P54646+Q9Y478); test: Activation of bacterially-expressed AMPKα2β1γ1 in vitro (HTRF-KinEASE Cisbio assay); type: biochemical; settings: CaMKKβ-phosphorylated purified AMPK, varying concentrations, 30 mins, FIG. 1
T1 construct: His; made in house; host or cells: bacteria
Protocol: The AMPK heterotrimers were expressed in bacteria and purified through the His-α subunit by nickel purification before further purification through gel filtration. After being phosphorylated by incubation with CaMKKβ, AMPK complexes were further purified with a final gel filtration purification step. Phosphorylated purified AMPK was incubated with varying concentrations of Compound 1 or 2 for 30 mins using substrate and reagents from the HTRF-KinEASE Cisbio assay kit (STK S1 Kit). Phosphorylation of the substrate was measured by incubating with donor and acceptor antibodies for 2 h at room temperature as per the manufacturer's protocol (Coulerie et al., (2016) PMID: 27792327) and phosphorylated peptide detected by performing HTRF. The 665 nm/620 nm ratio was determined and plotted vs the log of the concentration of ligand.

[1] = test system: phosphorylation of the AMPK substrate, acetyl-CoA carboxylase (ACC), in U2OS Flp-In T-REx mammalian cells; test: pACC HTRF assay: phosphorylation of the AMPK substrate ACC in U2OS Flp-In T-REx cells; type: cell-based; settings: varying concentrations, 1 h, media lacking FBS, FIG. 2
Protocol: U2OS Flp-In T-REx cells were first seeded at 50 K in a 96-well plate and left overnight at 37 C in DMEM GlutaMAX (Thermo Fisher Scientific) supplemented with 10% (vol/vol) FBS and 100 U/ml penicillin G, and 100 μg/ml streptomycin. Cells were treated for 1 h with varying concentrations of Lusianthridin in media lacking FBS and then cells were lysed in 50 μl of Cisbio lysis buffer #1 supplemented with blocking solution as per the manufacturer's protocol (Cisbio). Cells were lysed for 30 mins at room temperature before 16 μl of lysate was incubated with 4 μl of the HTRF antibodies (1:40 dilution of the acceptor and donor (p)ACC antibodies, as per the manufacturers protocol). Lysates were incubated overnight with the antibodies before 665 nm/620 nm ratio was determined using a MolecularDevices i3 plate reader (with a HTRF cartridge add-on).

T1 sequence (P54646 whole entry): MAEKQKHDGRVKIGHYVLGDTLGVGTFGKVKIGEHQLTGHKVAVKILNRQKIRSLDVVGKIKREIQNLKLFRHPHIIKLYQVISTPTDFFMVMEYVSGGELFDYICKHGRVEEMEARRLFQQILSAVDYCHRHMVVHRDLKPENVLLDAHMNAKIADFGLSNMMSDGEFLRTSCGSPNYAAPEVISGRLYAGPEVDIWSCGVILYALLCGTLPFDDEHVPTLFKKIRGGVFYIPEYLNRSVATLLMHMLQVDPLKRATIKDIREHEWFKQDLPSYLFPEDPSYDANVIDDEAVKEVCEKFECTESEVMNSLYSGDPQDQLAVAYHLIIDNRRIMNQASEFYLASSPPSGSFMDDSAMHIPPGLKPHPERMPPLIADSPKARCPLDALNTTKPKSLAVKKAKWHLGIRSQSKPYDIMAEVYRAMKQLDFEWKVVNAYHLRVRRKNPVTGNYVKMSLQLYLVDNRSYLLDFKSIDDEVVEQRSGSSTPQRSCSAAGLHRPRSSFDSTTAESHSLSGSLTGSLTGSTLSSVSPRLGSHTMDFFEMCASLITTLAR
T1 sequence (Q9Y478 whole entry): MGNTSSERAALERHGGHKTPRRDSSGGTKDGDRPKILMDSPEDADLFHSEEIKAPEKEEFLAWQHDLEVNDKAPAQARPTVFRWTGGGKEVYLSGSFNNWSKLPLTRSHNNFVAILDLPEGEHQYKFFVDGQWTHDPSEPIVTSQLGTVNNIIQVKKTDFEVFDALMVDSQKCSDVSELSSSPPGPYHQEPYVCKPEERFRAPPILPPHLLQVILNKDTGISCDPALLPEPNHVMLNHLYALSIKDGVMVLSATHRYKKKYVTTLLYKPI
T1 sequence (P54619 whole entry): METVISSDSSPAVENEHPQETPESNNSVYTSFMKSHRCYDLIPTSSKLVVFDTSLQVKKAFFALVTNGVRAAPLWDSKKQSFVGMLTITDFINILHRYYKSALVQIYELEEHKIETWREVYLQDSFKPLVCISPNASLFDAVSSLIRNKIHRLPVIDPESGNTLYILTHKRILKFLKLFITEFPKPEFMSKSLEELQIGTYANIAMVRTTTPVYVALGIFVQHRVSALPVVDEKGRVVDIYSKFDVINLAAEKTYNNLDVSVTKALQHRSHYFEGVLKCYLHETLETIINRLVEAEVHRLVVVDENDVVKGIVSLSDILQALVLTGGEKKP

SMILES	activation of AMPK complexes in vitro (substrate phosphorylation, 665 nm/620 nm HTRF ratio vs log concentration) (AMPKα2β1γ1)	phosphorylation of the AMPK substrate ACC (665 nm/620 nm HTRF ratio) [1]
COc1cc(O)c2c(ccc3cc(O)ccc32)c1 [Compound 1, 7-Methoxyphenanthrene-2,5-diol]	directly activate AMPK complexes in vitro	increase the phosphorylation of the AMPK substrate, ACC, in a dose-dependent manner
COc1cc(O)c2c(ccc3cccc(O)c32)c1 [Compound 2, 2-Methoxyphenanthrene-4,5-diol]	directly activate AMPK complexes in vitro	increase the phosphorylation of the AMPK substrate, ACC, in a dose-dependent manner
